The target in experiment [1] is T1, Ephrin type-B receptor 1 (Homo sapiens) (UniProt P54762).
T1 sequence (whole entry): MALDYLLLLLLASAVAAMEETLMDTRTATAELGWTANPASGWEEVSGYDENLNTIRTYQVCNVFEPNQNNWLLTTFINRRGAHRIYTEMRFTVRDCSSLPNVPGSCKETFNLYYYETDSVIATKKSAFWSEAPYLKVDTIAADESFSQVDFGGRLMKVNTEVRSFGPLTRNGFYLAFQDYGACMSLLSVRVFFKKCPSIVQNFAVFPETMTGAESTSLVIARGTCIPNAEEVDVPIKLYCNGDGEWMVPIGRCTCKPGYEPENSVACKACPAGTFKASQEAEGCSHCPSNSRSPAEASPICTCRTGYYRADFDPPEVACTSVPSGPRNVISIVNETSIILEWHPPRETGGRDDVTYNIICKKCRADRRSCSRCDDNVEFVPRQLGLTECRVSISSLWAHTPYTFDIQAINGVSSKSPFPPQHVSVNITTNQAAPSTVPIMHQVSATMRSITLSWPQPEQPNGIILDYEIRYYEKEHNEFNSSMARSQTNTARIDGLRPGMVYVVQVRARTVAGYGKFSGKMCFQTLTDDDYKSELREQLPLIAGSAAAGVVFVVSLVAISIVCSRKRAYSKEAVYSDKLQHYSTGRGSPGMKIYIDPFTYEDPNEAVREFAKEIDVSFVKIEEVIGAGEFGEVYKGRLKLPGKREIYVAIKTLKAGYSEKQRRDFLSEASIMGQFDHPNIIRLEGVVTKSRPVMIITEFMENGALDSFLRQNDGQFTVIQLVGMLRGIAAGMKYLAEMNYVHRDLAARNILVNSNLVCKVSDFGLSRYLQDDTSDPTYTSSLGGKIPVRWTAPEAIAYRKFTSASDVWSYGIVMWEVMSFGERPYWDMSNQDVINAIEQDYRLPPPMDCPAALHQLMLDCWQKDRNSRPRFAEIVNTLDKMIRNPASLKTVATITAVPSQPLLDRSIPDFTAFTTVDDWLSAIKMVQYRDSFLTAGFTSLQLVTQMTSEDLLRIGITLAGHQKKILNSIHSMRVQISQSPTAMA
In words: Inhibition of EPHB1 (unknown origin) at 10 uM after 120 mins P33 radiolabeled kinase activity assay.

Experiment [2] deals with G protein-coupled receptor kinase 4 (Homo sapiens) (UniProt P32298). Description: Inhibition of GRK4 (unknown origin) at 10 uM after 120 mins P33 radiolabeled kinase activity assay.
The target in experiment [3] is G protein-coupled receptor kinase 5 (Homo sapiens) (UniProt P34947). Description: Inhibition of GRK5 (unknown origin) at 10 uM after 120 mins P33 radiolabeled kinase activity assay.
Experiment [4] addresses Mitogen-activated protein kinase kinase kinase kinase 4 (Homo sapiens) (UniProt O95819). Description: Inhibition of HGK (unknown origin) at 10 uM after 120 mins P33 radiolabeled kinase activity assay.
For experiment [5], the target named is Mitogen-activated protein kinase kinase kinase kinase 1 (Homo sapiens) (UniProt Q92918). In words: Inhibition of HPK1 (unknown origin) at 10 uM after 120 mins P33 radiolabeled kinase activity assay.
Experiment [6] has as its target Mitogen-activated protein kinase 9 (Homo sapiens) (UniProt P45984). In words: Inhibition of JNK2 (unknown origin) at 10 uM after 120 mins P33 radiolabeled kinase activity assay.
Experiment [7] has as its target Mitogen-activated protein kinase kinase kinase 11 (Homo sapiens) (UniProt Q16584). Description: Inhibition of MLK3 (unknown origin) at 10 uM after 120 mins P33 radiolabeled kinase activity assay.
Experiment [8] concerns the target T2, Myosin-IIIb (Homo sapiens) (UniProt Q8WXR4).
T2 sequence (whole entry): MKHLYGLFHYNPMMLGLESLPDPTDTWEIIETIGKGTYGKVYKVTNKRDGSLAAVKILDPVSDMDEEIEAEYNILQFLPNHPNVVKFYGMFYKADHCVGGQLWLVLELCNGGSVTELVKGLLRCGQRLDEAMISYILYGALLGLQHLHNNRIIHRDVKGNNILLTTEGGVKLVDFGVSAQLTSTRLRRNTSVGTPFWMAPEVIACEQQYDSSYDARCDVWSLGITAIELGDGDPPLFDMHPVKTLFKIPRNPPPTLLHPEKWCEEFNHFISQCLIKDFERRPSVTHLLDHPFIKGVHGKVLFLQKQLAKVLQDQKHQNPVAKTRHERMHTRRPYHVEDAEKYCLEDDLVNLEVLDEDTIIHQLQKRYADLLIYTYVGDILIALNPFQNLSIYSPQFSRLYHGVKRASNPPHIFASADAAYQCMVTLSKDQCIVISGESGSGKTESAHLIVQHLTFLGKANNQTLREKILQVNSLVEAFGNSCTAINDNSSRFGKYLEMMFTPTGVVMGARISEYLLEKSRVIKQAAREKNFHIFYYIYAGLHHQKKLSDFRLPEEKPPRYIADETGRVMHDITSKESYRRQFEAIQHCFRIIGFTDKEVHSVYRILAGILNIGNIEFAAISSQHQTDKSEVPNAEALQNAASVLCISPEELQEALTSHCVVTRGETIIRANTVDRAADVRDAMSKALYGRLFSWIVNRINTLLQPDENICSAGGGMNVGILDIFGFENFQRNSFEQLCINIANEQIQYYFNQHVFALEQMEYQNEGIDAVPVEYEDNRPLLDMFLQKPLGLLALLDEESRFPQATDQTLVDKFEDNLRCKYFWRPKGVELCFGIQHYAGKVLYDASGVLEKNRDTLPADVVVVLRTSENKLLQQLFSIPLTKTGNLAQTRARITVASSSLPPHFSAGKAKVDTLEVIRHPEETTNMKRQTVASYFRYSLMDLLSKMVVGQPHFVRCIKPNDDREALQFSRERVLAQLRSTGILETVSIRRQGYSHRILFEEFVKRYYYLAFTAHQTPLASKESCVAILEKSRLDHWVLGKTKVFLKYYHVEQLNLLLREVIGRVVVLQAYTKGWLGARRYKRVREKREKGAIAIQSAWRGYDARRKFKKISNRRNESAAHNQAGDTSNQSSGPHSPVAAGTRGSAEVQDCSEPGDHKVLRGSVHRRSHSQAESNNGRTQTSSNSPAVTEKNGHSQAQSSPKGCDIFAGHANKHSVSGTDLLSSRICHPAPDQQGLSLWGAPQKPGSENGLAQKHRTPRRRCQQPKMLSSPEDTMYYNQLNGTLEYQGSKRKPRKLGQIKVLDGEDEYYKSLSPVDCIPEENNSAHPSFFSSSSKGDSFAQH
Description: Inhibition of MYO3b (unknown origin) at 10 uM after 120 mins P33 radiolabeled kinase activity assay.

The target in experiment [9] is Serine/threonine-protein kinase 33 (Homo sapiens) (UniProt Q9BYT3). Description: Inhibition of STK33 (unknown origin) at 10 uM after 120 mins P33 radiolabeled kinase activity assay.
Experiment [10] addresses Death-associated protein kinase 3 (Homo sapiens) (UniProt O43293). In words: Inhibition of ZIPK (unknown origin) at 10 uM after 120 mins P33 radiolabeled kinase activity assay.
The target in experiment [11] is Tyrosine-protein kinase BTK (Homo sapiens) (UniProt Q06187). In words: Inhibition of BTK (unknown origin) at 10 uM after 120 mins P33 radiolabeled kinase activity assay.

For three molecules, inhibition results are on record in ChEMBL document CHEMBL3627608, “Crystal structures of human RIP2 kinase catalytic domain complexed with ATP-competitive inhibitors: Foundations for understanding inhibitor selectivity” (Bioorg Med Chem, 2015).

The term inhibition denotes the relative decrease from the control value, in per cent.

Chain of G protein-coupled receptor kinase 5 (Homo sapiens) (P34947 whole entry, looked up): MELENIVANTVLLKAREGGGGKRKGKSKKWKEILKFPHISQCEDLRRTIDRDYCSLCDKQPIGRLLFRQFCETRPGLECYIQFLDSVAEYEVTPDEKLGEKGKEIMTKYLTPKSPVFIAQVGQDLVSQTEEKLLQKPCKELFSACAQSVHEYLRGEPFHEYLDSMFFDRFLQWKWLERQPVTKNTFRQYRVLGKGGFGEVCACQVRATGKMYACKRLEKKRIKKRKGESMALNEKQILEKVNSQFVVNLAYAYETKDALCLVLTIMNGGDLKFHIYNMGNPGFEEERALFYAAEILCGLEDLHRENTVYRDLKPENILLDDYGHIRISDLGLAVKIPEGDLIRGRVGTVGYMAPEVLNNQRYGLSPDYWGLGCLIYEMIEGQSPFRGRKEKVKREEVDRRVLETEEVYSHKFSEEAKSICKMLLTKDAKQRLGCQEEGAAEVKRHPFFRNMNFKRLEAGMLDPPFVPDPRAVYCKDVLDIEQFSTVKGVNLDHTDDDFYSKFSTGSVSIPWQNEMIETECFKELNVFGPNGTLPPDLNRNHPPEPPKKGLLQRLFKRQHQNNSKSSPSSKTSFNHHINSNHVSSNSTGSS
Chain of Mitogen-activated protein kinase 9 (Homo sapiens) (P45984 whole entry, looked up): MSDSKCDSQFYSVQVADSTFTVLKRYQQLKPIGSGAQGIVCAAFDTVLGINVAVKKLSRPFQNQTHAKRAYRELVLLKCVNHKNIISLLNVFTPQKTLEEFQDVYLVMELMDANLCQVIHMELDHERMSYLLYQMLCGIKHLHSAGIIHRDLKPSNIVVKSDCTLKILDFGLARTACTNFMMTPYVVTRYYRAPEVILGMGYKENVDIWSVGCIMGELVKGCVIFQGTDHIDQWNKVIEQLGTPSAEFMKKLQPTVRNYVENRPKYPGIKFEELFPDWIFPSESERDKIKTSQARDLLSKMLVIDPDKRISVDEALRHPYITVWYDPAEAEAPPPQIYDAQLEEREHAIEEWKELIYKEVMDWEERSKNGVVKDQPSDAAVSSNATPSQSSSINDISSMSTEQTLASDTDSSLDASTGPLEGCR
Chain of Mitogen-activated protein kinase kinase kinase 11 (Homo sapiens) (Q16584 whole entry, looked up): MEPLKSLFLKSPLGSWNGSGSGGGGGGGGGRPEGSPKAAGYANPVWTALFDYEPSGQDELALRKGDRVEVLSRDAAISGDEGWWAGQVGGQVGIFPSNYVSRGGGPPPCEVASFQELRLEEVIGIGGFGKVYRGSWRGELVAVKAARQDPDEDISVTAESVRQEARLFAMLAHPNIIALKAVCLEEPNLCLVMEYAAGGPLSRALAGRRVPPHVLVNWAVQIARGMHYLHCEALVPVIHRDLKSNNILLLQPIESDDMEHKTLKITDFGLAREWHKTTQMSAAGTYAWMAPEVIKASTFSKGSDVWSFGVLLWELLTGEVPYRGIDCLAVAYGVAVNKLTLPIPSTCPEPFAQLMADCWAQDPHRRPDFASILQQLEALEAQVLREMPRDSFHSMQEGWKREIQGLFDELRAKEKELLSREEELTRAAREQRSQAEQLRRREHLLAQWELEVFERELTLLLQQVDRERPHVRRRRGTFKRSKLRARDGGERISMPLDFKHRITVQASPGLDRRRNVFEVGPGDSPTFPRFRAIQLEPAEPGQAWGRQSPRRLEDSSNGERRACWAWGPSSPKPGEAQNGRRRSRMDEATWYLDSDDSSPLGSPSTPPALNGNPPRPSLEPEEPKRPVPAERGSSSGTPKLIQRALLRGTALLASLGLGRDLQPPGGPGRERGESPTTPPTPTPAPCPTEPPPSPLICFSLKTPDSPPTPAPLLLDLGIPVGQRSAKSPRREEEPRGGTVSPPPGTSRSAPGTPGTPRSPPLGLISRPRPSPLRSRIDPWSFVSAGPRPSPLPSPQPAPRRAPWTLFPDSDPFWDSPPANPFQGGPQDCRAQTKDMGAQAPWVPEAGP
Chain of Mitogen-activated protein kinase kinase kinase kinase 4 (Homo sapiens) (O95819 2-1239 limits assumed): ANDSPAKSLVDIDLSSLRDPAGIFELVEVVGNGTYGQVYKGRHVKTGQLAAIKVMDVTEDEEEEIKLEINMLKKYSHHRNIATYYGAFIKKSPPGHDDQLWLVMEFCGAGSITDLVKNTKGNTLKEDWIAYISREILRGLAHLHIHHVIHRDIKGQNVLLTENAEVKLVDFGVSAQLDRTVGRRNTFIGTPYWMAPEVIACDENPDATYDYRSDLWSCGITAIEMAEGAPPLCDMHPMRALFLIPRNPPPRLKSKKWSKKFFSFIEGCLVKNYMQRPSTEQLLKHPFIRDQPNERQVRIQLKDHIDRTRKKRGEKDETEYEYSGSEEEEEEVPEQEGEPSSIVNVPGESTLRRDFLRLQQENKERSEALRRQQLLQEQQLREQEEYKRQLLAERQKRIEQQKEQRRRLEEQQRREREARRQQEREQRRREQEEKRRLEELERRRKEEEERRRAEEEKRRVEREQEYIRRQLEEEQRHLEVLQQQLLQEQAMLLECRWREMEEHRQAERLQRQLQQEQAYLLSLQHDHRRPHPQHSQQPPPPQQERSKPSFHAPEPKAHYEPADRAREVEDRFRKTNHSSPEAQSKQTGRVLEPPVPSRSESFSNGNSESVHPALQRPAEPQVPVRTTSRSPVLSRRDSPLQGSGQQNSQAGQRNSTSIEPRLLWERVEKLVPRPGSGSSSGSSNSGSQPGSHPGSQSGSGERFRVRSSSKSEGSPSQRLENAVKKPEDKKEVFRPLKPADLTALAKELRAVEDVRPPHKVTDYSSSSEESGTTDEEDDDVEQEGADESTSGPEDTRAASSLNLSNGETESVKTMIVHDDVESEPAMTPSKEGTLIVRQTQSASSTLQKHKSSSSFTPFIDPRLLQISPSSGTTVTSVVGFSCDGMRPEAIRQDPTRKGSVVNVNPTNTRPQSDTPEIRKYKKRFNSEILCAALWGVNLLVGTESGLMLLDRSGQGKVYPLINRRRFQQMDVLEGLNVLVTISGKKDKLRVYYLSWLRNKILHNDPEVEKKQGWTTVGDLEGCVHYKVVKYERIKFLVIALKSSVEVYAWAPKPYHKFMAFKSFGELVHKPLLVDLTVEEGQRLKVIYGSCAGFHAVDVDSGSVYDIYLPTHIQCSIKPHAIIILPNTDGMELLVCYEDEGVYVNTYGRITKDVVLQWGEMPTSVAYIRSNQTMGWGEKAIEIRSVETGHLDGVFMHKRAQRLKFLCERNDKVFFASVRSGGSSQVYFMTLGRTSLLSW
Chain of Mitogen-activated protein kinase kinase kinase kinase 1 (Homo sapiens) (Q92918 whole entry, looked up): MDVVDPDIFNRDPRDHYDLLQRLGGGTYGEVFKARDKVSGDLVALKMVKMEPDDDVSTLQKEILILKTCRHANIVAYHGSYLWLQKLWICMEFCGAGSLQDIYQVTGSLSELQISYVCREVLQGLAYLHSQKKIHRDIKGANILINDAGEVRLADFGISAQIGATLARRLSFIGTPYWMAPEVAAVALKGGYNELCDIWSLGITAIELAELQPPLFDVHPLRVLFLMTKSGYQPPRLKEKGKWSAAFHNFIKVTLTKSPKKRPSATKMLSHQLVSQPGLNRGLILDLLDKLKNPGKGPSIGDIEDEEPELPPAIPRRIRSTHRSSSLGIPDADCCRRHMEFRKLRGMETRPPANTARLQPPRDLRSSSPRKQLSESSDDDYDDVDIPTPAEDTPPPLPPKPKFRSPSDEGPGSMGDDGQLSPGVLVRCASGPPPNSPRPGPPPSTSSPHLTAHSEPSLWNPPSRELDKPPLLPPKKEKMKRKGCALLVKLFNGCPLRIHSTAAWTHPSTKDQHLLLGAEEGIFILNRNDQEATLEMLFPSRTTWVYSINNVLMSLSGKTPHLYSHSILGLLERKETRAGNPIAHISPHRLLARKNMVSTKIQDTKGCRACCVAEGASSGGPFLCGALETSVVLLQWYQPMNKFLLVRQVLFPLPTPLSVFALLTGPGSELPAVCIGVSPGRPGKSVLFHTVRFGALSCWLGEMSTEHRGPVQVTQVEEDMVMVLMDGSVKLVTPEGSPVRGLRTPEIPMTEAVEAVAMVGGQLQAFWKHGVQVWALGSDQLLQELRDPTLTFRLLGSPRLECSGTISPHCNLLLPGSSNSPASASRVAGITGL
Chain of Death-associated protein kinase 3 (Homo sapiens) (O43293 whole entry, looked up): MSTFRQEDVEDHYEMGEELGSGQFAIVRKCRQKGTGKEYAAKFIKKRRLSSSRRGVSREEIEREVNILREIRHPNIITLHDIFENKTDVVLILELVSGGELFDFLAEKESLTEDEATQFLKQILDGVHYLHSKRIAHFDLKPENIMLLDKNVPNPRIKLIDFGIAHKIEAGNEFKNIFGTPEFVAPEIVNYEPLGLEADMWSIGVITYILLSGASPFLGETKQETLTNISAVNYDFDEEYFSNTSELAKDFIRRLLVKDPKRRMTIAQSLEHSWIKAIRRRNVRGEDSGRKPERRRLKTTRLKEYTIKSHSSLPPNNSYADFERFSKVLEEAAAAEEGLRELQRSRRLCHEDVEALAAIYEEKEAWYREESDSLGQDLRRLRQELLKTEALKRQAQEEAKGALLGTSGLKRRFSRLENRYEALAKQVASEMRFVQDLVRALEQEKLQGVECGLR
Chain of G protein-coupled receptor kinase 4 (Homo sapiens) (P32298 whole entry, looked up): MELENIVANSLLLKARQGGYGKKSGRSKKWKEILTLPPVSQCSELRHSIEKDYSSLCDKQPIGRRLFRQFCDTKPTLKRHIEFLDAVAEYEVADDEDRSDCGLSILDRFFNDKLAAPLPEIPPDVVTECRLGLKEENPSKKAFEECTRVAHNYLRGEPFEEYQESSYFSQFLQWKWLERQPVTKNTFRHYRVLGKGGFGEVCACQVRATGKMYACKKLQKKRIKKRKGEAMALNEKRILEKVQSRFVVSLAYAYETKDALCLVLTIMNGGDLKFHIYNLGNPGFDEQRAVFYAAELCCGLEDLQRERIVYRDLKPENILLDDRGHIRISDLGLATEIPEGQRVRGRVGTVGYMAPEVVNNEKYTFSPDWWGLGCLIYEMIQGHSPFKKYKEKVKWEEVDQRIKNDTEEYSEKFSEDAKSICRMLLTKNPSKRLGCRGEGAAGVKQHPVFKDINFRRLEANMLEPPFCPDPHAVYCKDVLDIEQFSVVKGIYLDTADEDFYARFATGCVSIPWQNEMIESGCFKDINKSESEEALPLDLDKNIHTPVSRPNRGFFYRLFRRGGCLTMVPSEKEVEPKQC

`COCCNC(=O)c1ccc2c(c1)nc(-c1cnc(-c3ccc(Cl)cc3)[nH]1)n2CCOC`: the inhibition in experiment [1] is 12.3%; in [2], -0.94%; in experiment [3] it was -6.1%; in experiment [4], 57.7%; in experiment [5], -3.48%; in experiment [6], 9.13%. Moreover, the inhibition was found to be 6.84% in experiment [7]; 2.38% in experiment [8]; 10.6% in experiment [9]; 3.1% in experiment [10]; 19.4% in experiment [11].

Consider `CC(C)(C)c1cc(NC(=O)Nc2ccc(Oc3ccncc3)cc2)no1`, for which the inhibition in experiment [1] was 93.2%; in experiment [2], -0.89%; in [3], -7.31%; in [4], 99.8%; in experiment [5], 57.6%; in experiment [6], 79.8%. Besides, the inhibition was determined as 60.1% in experiment [7]; 92.5% in experiment [8]; 36.7% in experiment [9]; 35.6% in [10]; 20.3% in experiment [11].

As to `CS(=O)(=O)c1cccc(Nc2nccc(-c3sc(N4CCOCC4)nc3-c3cccc(NS(=O)(=O)c4c(F)cccc4F)c3)n2)c1`, the inhibition in experiment [1] is 78.7%; in [2], -2.43%; in experiment [3] it was -3.67%; in experiment [4], 63.3%; in experiment [5], 31.9%; in experiment [6] it was 13.5%. Besides, the inhibition in experiment [7] came out at 92.7%; in [8], 71.7%; in experiment [9] it was 29.3%; in experiment [10], 50.7%; in [11], 96%.
